Tests used:
[1] = tested on: human naïve state stem cells; experiment: Stem cell drug screen on naïve state stem cells (pluripotency, proliferation, differentiation); assay type: cell-based; conditions: JQ1 at 500 nM or 1 uM, naïve cells from NME7AB or NME1 dimers (FIGS. 13-16)
human fibroblasts = experiment: Effect on fibroblasts as surrogate for normal cells; assay type: cell-based; conditions: 500 nM final concentration (FIG. 24)
Excerpt: However, fibroblasts are more differentiated than stem cells but are able to self-replicate for defined periods of time. We tested selected compounds of the invention to determine if these compounds were just cytotoxic or if they selectively affected stem cells and, importantly, cancer cells, but not normal, healthy cells. Here, we used fibroblasts as a surrogate for normal cells. […] […] Each compound was scored for its effect on fibroblast proliferation where “+” indicates 25% inhibition of fibroblast growth, “++” 50% inhibition and “+++” 75% inhibition of growth.

[2] = tested on: fibronectin, vimentin, NF1; experiment: RT-PCR of markers of differentiation in naïve stem cells; assay type: cell-based, human
Excerpt: The genes whose expression increased as a result of treatment with the compounds of the invention, in a concentration dependent manner, are fibronectin and vimentin, which both increase as stem cells initiate differentiation and NF1, which is one of the first genes to increase when stem cells begin to differentiate down the neural lineage. […] Thus, compounds of the invention that induce markers of differentiation are useful for the treatment of cancers, because cancer cells, by definition, have de-differentiated, which allows them to continually self-replicate. […] Expression of metastatic marker E-cadherin was reduced and expression of differentiation markers fibronectin, vimentin and NF1 were increased.

[3] = tested on: human primed state stem cells; experiment: Stem cell drug screen on primed state stem cells (pluripotency, proliferation, differentiation); assay type: cell-based; conditions: for induction of differentiation / effect on growth of primed state stem cells: treated for 3 days, JQ1 at 500 nM or 1 uM (FIGS. 11-12)
Method: (§1) The stem cell screening assay, was performed in both the presence and absence of the stem cell growth factors: NME7AB for growing naïve stem cells or FGF for growing primed stem cells. If the cognate growth factor was present, then the biological or small molecule would have to compete away the growth factor to get an effect. Therefore, we expected to see more of an effect when the growth factor, FGF for primed stem cells or NME7AB or NME1 dimers for naïve stem cells, was absent. The effect of the compounds on stem cells was visually determined and compounds were ranked 0-4, with 4 being the greatest effect and 0 being no observable effect. The major effect that was observed was a change from pluripotent stem cell morphology, which is a cobblestone pattern of small round cells with a large nucleus to cytoplasm ratio, to that of differentiating stem cells, which are elongated, large and flattened cells with a smaller nucleus to cytoplasm ratio. […] The compounds were added to a final concentration of 6 uM to either naïve state stem cells or primed state stem cells. In this particular case, the naïve state stem cells were maintained in a naïve state by culturing in a media containing NME7AB or NME1 dimers. However, other methods such as 2i and 5i (Silva et al., 2008, Nichols and Smith, 2009, Theunissen et al., 2014)] can be used to maintain stem cells in a more naïve state. In this case primed state stem cells were cultured in bFGF over a layer of MEFs, although it is known that any bFGF containing media will maintain stem cells in the primed state.
(§2) Percent inhibition of cancer cell migration was performed in a wound healing assay. The percent area that the invading cancer cells occupied, in the presence of a drug candidate compared to the controls, was quantified by Image J cell software which enables cell counting from photographs. IC50's were calculated by performing migration experiments at several compound concentrations and then applying Hill's equation. Inhibition of cancer cell proliferation was quantified by automated cell counting in the presence or absence of a drug candidate. Here, the inhibition of cancer cell proliferation was scored 1 if proliferation was inhibited by 25%, 2 if inhibited by […] and 4 for the highest degree of inhibition of proliferation, and 0 for the lowest. The effect of the drug candidates on stem cell pluripotency or proliferation was scored by eye, based on cell morphology and cell density, with 0 being no change in morphology or cell number and 4 being the most profound effect, with the stem cells taking on the morphology of a differentiating cell, along with much fewer cells indicative of inhibition of proliferation. As an example, FIGS. 30A-30F show photographs of naïve stem cell, primed stem cell and fibroblast controls. FIGS. 31A-31F show the effect of compounds of the invention on naïve state stem cells, where the number of ‘+’ signs indicates the score from 0-4 of ability of compound to inhibit pluripotency, proliferation of naïve stem cells or ability to induce their differentiation. […] FIGS. 36-44 and 65-87 show photographs and IC50 graphs of the compounds of the invention, inhibiting cancer cell migration and invasion. Cancer cell migration is a hallmark of metastatic cancer.
Stem cells whether embryonic or induced pluripotent stem (iPS) cells were cultured in a minimal, serum-free media that contained human recombinant bFGF at a concentration of 8 ng/mL. The stem cells were plated over a layer of inactivated mouse embryonic fibroblasts, aka MEFs, which secrete additional uncharacterized growth factors and cytokines.
Human naïve state and primed stem cells were cultured in parallel for at least 5 passages to guarantee normal differentiation-free growth. The stem cells were plated in 12-well cell culture plates with 50,000 cells per well. Cells were cultured in their respective media, either bFGF media or NME7AB media for 24 hours. […]

cancer cells [4] = conditions: in vitro; stated as previously shown; cited from earlier work
[5] = tested on: human naïve state stem cells; experiment: Stem cell drug screen on naïve state stem cells (pluripotency, proliferation, differentiation); assay type: cell-based; conditions: first panel (FIGS. 2, 7-10); small molecules 6 uM; 3 days; with or without NME7AB
Method: as §1, §2
Stem cells whether embryonic or induced pluripotent stem (iPS) cells were cultured in a minimal, serum-free media that contained human recombinant NME7AB at a concentration of 2-32 nM wherein 4-8 nM is preferred and 4 nM is more preferred. To facilitate surface attachment, cell culture plates were coated with an anti-MUC1* monoclonal antibody called MN-C3 or C3 or MN-C8 at a concentration of 2-100 μg/mL coating solution, wherein 3-50 ug/mL is preferred and 6-12.5 ug/mL is more preferred. In these experiments, 12.5 ug/mL of MN-C3 was used. Antibody coated plates were incubated at 4 degrees C. overnight prior to plating stem cells. A Rho kinase I inhibitor was added to enhance surface attachment. […]

cancer cells [6] = conditions: NME7AB-driven transformation; stated as previously shown; cited from earlier work

In the case of `Cc1sc2c(c1C)C(c1ccc(Cl)cc1)=N[C@@H](CC(=O)OC(C)(C)C)c1nnc(C)n1-2` [JQ1(+), reference compound], the “effect on naïve state stem cell differentiation and growth” value [1] is reported as “dramatically induced differentiation of naïve state stem cells and inhibited their growth”, the “effect on naïve state stem cell differentiation and growth” value ([1]; listed as JQI) is reported as “inhibitory effect” and the “effect on human fibroblasts” value (human fibroblasts) is reported as “same effect on fibroblasts as it does on primed state stem cells”. For the same compound, the “up-regulation of markers of differentiation in stem cells” value [2] was “did not cause up-regulation of markers of differentiation”, the “effect on the size of primed stem cell colonies” value ([3]; treated for 3 days (FIG. 11)) was “modest effect” and the “induction of differentiation / effect on growth of primed state stem cells” value [3] was “None of these agents appeared to induce differentiation”. For the same compound, the “induction of differentiation / effect on growth of primed state stem cells” value ([3]; listed as JQI) was “not primed stem cell growth”.
In the case of `COC(=O)c1ccc(C2c3[nH]c4ccccc4c3CCN2C(=O)c2cccc(Cl)c2)cc1` (centres unmarked) [MN0642], the “inhibition of cancer cell growth” value (cancer cells [4]) is given as “inhibit the growth of cancer cells in vitro” and the “induced differentiation / inhibited pluripotency and growth of naïve state stem cells” value [5] is given as “induced differentiation”.
For `Cc1[nH]c(/C=C2\C(=O)Nc3ccc(S(=O)(=O)N(C)c4cccc(Cl)c4)cc32)c(C)c1C(=O)N1CCN(C)CC1` [SU11274], the “up-regulation of markers of differentiation in stem cells” value [2] was “did not cause up-regulation of markers of differentiation”.
In the case of `CCCCNC(=O)N1CCc2c([nH]c3ccccc23)C1C(C)c1ccccc1` (centres unmarked) [MN1130], the “effect on primed stem cells” value ([3]; first panel (FIGS. 2-6), small molecules 6 uM, 3 days, with or without FGF) is reported as “modest effect” and the “induced differentiation / inhibited pluripotency and growth of naïve state stem cells” value [5] is reported as “induced differentiation”.
For “FLR peptide: synthetic peptide corresponding to the extracellular domain of MUC1*, FLR also known as PSMGFR (SEQ ID NO:3) (GTINVHDVETQFNQYKTEAASRYNLTISDVSVSDVPFPFSAQSGA; the extracellular domain of Native Primary Sequence of the MUC1 Growth Factor Receptor (nat-PSMGFR - an example of "PSMGFR"))”, the “inhibition of the transition of regular cancer cells to metastatic cancer cells” value (cancer cells [6]) is given as “inhibit the transition” and the “induced differentiation / inhibited pluripotency and growth of naïve state stem cells” value [5] is given as “induced differentiation”.
